Test results as given in the NIST ThermoML archive (doi:10.1016/j.fluid.2015.03.048).
Numbers after ± are expanded uncertainties.

Experiment: xn = mol fraction of the nth substance listed
Settings: 303.15 K, 100 kPa, Liquid; for viscosity: Capillary tube (Ostwald / Ubbelohde) method; for excess molar volume: Direct dilatometry; for speed of sound: Frequency=3 MHz, Sing-around technique in a fixed-path interferometer; for mass density: Pycnometric method

Q: Which viscosity (x2 = 0.1045) does the source give for `Clc1cccc(Cl)c1` [1,3-dichlorobenzene] + CC(=O)N(C)C here?
A: 1.024 ± 0.014 mPa·s

Q: And the viscosity (x2 = 0.1525)?
A: 1.023 ± 0.014 mPa·s

Q: And the viscosity (x2 = 0.1941)?
A: 1.022 ± 0.014 mPa·s

Q: And the viscosity (x2 = 0.262)?
A: 1.021 ± 0.014 mPa·s

Q: And the viscosity (x2 = 0.3235)?
A: 1.02 ± 0.014 mPa·s

Q: And the viscosity (x2 = 0.4052)?
A: 1.019 ± 0.014 mPa·s

Q: And the viscosity (x2 = 0.4672)?
A: 1.018 ± 0.014 mPa·s

Q: And the viscosity (x2 = 0.522)?
A: 1.017 ± 0.014 mPa·s

Q: And the viscosity (x2 = 0.6531)?
A: 1.016 ± 0.014 mPa·s

Q: And the viscosity (x2 = 0.7245)?
A: 1.015 ± 0.014 mPa·s

Q: And the viscosity (x2 = 0.7656)?
A: 1.014 ± 0.014 mPa·s

Q: And the viscosity (x2 = 0.804)?
A: 1.013 ± 0.014 mPa·s

Q: And the viscosity (x2 = 0.8631)?
A: 1.011 ± 0.014 mPa·s

Q: What about the viscosity (x2 = 0.9131) of the same molecule?
A: 1.007 ± 0.014 mPa·s

Q: What about the viscosity (x2 = 0.9743) of the same molecule?
A: 0.952 ± 0.013 mPa·s

Q: What about the excess molar volume (x2 = 0.1045) of the same molecule?
A: -3e-08 ± 6e-09 m3/mol

Q: And the excess molar volume (x2 = 0.1525)?
A: -4.5e-08 ± 6e-09 m3/mol

Q: And the excess molar volume (x2 = 0.1941)?
A: -5.4e-08 ± 6e-09 m3/mol

Q: And the excess molar volume (x2 = 0.262)?
A: -6.7e-08 ± 6e-09 m3/mol

Q: What about the excess molar volume (x2 = 0.3235) of the same molecule?
A: -7.5e-08 ± 6e-09 m3/mol

Q: What about the excess molar volume (x2 = 0.4052) of the same molecule?
A: -7.7e-08 ± 6e-09 m3/mol

Q: What about the excess molar volume (x2 = 0.4672) of the same molecule?
A: -7.3e-08 ± 6e-09 m3/mol

Q: And the excess molar volume (x2 = 0.522)?
A: -6.6e-08 ± 6e-09 m3/mol

Q: And the excess molar volume (x2 = 0.6531)?
A: -4e-08 ± 6e-09 m3/mol

Q: What about the excess molar volume (x2 = 0.7245) of the same molecule?
A: -2.5e-08 ± 6e-09 m3/mol

Q: What about the excess molar volume (x2 = 0.7656) of the same molecule?
A: -1.4e-08 ± 6e-09 m3/mol

Q: What about the excess molar volume (x2 = 0.804) of the same molecule?
A: -7e-09 ± 6e-09 m3/mol

Q: And the excess molar volume (x2 = 0.8631)?
A: 2e-09 ± 6e-09 m3/mol

Q: What about the speed of sound (x2 = 0.0879) of the same molecule?
A: 1277 ± 3 m/s

Q: What about the speed of sound (x2 = 0.1294) of the same molecule?
A: 1284 ± 3 m/s

Q: And the speed of sound (x2 = 0.1659)?
A: 1290 ± 3 m/s

Q: What about the speed of sound (x2 = 0.2267) of the same molecule?
A: 1301 ± 3 m/s

Q: What about the speed of sound (x2 = 0.2831) of the same molecule?
A: 1312 ± 3 m/s

Q: And the speed of sound (x2 = 0.3601)?
A: 1326 ± 3 m/s

Q: What about the speed of sound (x2 = 0.42) of the same molecule?
A: 1337 ± 3 m/s

Q: And the speed of sound (x2 = 0.4742)?
A: 1347 ± 3 m/s

Q: And the speed of sound (x2 = 0.6086)?
A: 1372 ± 3 m/s

Q: What about the speed of sound (x2 = 0.6847) of the same molecule?
A: 1385 ± 3 m/s

Q: And the speed of sound (x2 = 0.7295)?
A: 1393 ± 3 m/s

Q: What about the speed of sound (x2 = 0.7721) of the same molecule?
A: 1400 ± 3 m/s

Q: What about the speed of sound (x2 = 0.8389) of the same molecule?
A: 1413 ± 3 m/s

Q: What about the speed of sound (x2 = 0.8967) of the same molecule?
A: 1429 ± 3 m/s

Q: What about the speed of sound (x2 = 0.969) of the same molecule?
A: 1437 ± 3 m/s

Q: And the mass density (x2 = 0.0879)?
A: 1248.69 ± 13 kg/m3

Q: What about the mass density (x2 = 0.1294) of the same molecule?
A: 1235.21 ± 12 kg/m3

Q: And the mass density (x2 = 0.1659)?
A: 1223.28 ± 12 kg/m3

Q: What about the mass density (x2 = 0.2267) of the same molecule?
A: 1203.33 ± 12 kg/m3

Q: What about the mass density (x2 = 0.2831) of the same molecule?
A: 1184.73 ± 12 kg/m3

Q: What about the mass density (x2 = 0.3601) of the same molecule?
A: 1159.16 ± 12 kg/m3

Q: And the mass density (x2 = 0.42)?
A: 1139.1 ± 11 kg/m3

Q: And the mass density (x2 = 0.4742)?
A: 1120.88 ± 11 kg/m3

Q: And the mass density (x2 = 0.6086)?
A: 1075.37 ± 11 kg/m3

Q: What about the mass density (x2 = 0.6847) of the same molecule?
A: 1049.44 ± 11 kg/m3

Q: What about the mass density (x2 = 0.7295) of the same molecule?
A: 1034.11 ± 10 kg/m3

Q: And the mass density (x2 = 0.7721)?
A: 1019.55 ± 10 kg/m3

Q: And the mass density (x2 = 0.8389)?
A: 996.66 ± 10 kg/m3

Q: What about the mass density (x2 = 0.8967) of the same molecule?
A: 969.13 ± 9.7 kg/m3

Q: And the mass density (x2 = 0.969)?
A: 945.84 ± 9.5 kg/m3

Q: Which viscosity (x2 = 0.106) does the source give for `Cc1ccccc1Cl` [2-chlorotoluene] + CC(=O)N(C)C here?
A: 0.884 ± 0.013 mPa·s

Q: And the viscosity (x2 = 0.1231)?
A: 0.883 ± 0.013 mPa·s

Q: And the viscosity (x2 = 0.1854)?
A: 0.882 ± 0.013 mPa·s

Q: And the viscosity (x2 = 0.2241)?
A: 0.881 ± 0.013 mPa·s

Q: What about the viscosity (x2 = 0.2672) of the same molecule?
A: 0.88 ± 0.013 mPa·s

Q: What about the viscosity (x2 = 0.3057) of the same molecule?
A: 0.879 ± 0.013 mPa·s

Q: And the viscosity (x2 = 0.3762)?
A: 0.878 ± 0.013 mPa·s

Q: And the viscosity (x2 = 0.4095)?
A: 0.877 ± 0.013 mPa·s

Q: And the viscosity (x2 = 0.5255)?
A: 0.876 ± 0.013 mPa·s

Q: What about the viscosity (x2 = 0.561) of the same molecule?
A: 0.875 ± 0.013 mPa·s

Q: And the viscosity (x2 = 0.6052)?
A: 0.874 ± 0.013 mPa·s

Q: And the viscosity (x2 = 0.7214)?
A: 0.873 ± 0.013 mPa·s

Q: What about the viscosity (x2 = 0.7712) of the same molecule?
A: 0.872 ± 0.013 mPa·s

Q: What about the viscosity (x2 = 0.8021) of the same molecule?
A: 0.871 ± 0.013 mPa·s

Q: And the viscosity (x2 = 0.8795)?
A: 0.869 ± 0.013 mPa·s

Q: And the excess molar volume (x2 = 0.106)?
A: -2e-08 ± 6e-09 m3/mol

Q: What about the excess molar volume (x2 = 0.1231) of the same molecule?
A: -2.2e-08 ± 6e-09 m3/mol

Q: And the excess molar volume (x2 = 0.1854)?
A: -3e-08 ± 6e-09 m3/mol

Q: What about the excess molar volume (x2 = 0.2241) of the same molecule?
A: -3.5e-08 ± 6e-09 m3/mol

Q: What about the excess molar volume (x2 = 0.2672) of the same molecule?
A: -3.9e-08 ± 6e-09 m3/mol

Q: What about the excess molar volume (x2 = 0.3057) of the same molecule?
A: -4.3e-08 ± 6e-09 m3/mol

Q: And the excess molar volume (x2 = 0.3762)?
A: -4.9e-08 ± 6e-09 m3/mol

Q: What about the excess molar volume (x2 = 0.4095) of the same molecule?
A: -5.1e-08 ± 6e-09 m3/mol

Q: And the excess molar volume (x2 = 0.5255)?
A: -5.5e-08 ± 6e-09 m3/mol

Q: What about the excess molar volume (x2 = 0.561) of the same molecule?
A: -5.5e-08 ± 6e-09 m3/mol

Q: What about the excess molar volume (x2 = 0.6052) of the same molecule?
A: -5.2e-08 ± 6e-09 m3/mol

Q: What about the excess molar volume (x2 = 0.7214) of the same molecule?
A: -4.2e-08 ± 6e-09 m3/mol

Q: What about the excess molar volume (x2 = 0.7712) of the same molecule?
A: -3.6e-08 ± 6e-09 m3/mol

Q: What about the excess molar volume (x2 = 0.8021) of the same molecule?
A: -3.2e-08 ± 6e-09 m3/mol

Q: What about the excess molar volume (x2 = 0.8795) of the same molecule?
A: -2.3e-08 ± 6e-09 m3/mol

Q: What about the speed of sound (x2 = 0.1) of the same molecule?
A: 1305 ± 3 m/s

Q: What about the speed of sound (x2 = 0.1527) of the same molecule?
A: 1316 ± 3 m/s

Q: And the speed of sound (x2 = 0.1862)?
A: 1322 ± 3 m/s

Q: And the speed of sound (x2 = 0.2241)?
A: 1330 ± 3 m/s

Q: And the speed of sound (x2 = 0.2585)?
A: 1337 ± 3 m/s

Q: And the speed of sound (x2 = 0.3232)?
A: 1350 ± 3 m/s

Q: What about the speed of sound (x2 = 0.3545) of the same molecule?
A: 1356 ± 3 m/s

Q: What about the speed of sound (x2 = 0.4673) of the same molecule?
A: 1378 ± 3 m/s

Q: What about the speed of sound (x2 = 0.503) of the same molecule?
A: 1384 ± 3 m/s

Q: What about the speed of sound (x2 = 0.5483) of the same molecule?
A: 1391 ± 3 m/s

Q: And the speed of sound (x2 = 0.6722)?
A: 1407 ± 3 m/s

Q: What about the speed of sound (x2 = 0.7275) of the same molecule?
A: 1415 ± 3 m/s

Q: What about the speed of sound (x2 = 0.7625) of the same molecule?
A: 1416 ± 3 m/s

Q: And the speed of sound (x2 = 0.8525)?
A: 1428 ± 3 m/s

Q: What about the mass density (x2 = 0.1) of the same molecule?
A: 1059.98 ± 11 kg/m3

Q: And the mass density (x2 = 0.1527)?
A: 1053.19 ± 11 kg/m3

Q: What about the mass density (x2 = 0.1862) of the same molecule?
A: 1048.87 ± 11 kg/m3

Q: And the mass density (x2 = 0.2241)?
A: 1043.95 ± 10 kg/m3

Q: And the mass density (x2 = 0.2585)?
A: 1039.48 ± 10 kg/m3

Q: What about the mass density (x2 = 0.3232) of the same molecule?
A: 1031.07 ± 10 kg/m3

Q: And the mass density (x2 = 0.3545)?
A: 1026.99 ± 10 kg/m3

Q: And the mass density (x2 = 0.4673)?
A: 1012.24 ± 10 kg/m3

Q: And the mass density (x2 = 0.503)?
A: 1007.54 ± 10 kg/m3

Q: What about the mass density (x2 = 0.5483) of the same molecule?
A: 1001.55 ± 10 kg/m3

Q: And the mass density (x2 = 0.6722)?
A: 985.14 ± 9.9 kg/m3

Q: What about the mass density (x2 = 0.7275) of the same molecule?
A: 977.79 ± 9.8 kg/m3

Q: What about the mass density (x2 = 0.7625) of the same molecule?
A: 973.13 ± 9.8 kg/m3

Q: What about the mass density (x2 = 0.8525) of the same molecule?
A: 961.13 ± 9.6 kg/m3
